≈ marks a conversion by molar mass, not a printed value. Calls of active or inactive are those of the source. No cut-off for these calls is given here.
Legend:
[1] = Clearance in male C57BL/6 mouse at 2 mg/kg, iv measured up to 24 hrs by LC-MS/MS analysis; type: ADME, organism-based; settings: in vivo
[2] = Plasma protein binding in human assessed as unbound fraction incubated for 2 hrs by rapid equilibrium dialysis; type: ADME, cell-free
[3] = Half life in Sprague-Dawley rat at 10 mg/kg, po measured up to 24 hrs by LC-MS/MS analysis; type: ADME, organism-based; settings: in vivo
[4] = Efflux ratio of permeability across basolateral to apical over apical to basolateral side in human Caco-2 cells measured up to 120 mins by LC-MS/MS analysis; type: ADME, cell-based
[5] = molecular target: Protein cereblon/Interleukin-1 receptor-associated kinase 4 (Homo sapiens, UniProt Q9NWZ3+Q96SW2); test: PROTAC activity at CRBN/IRAK4 in human PBMC cells assessed as induction of IRAK4 degradation incubated for 24 hrs by HiBiT lytic reagent based analysis relative to control; type: cell-based
[6] = Tmax in male C57BL/6 mouse at 10 mg/kg, po measured up to 24 hrs by LC-MS/MS analysis; type: ADME, organism-based; settings: in vivo
[7] = molecular target: Protein cereblon/Interleukin-1 receptor-associated kinase 4 (Mus musculus) (UniProt Q8C7D2+Q8R4K2); test: In-vivo PROTAC activity at C57BL/6 mouse assessed as reduction in IRAK4 level in spleen at 100 mg/kg, po measured after 24 hrs by Western blot analysis; type: functional, organism-based; parameters: scale not given: the % may be the effect or the level left
[8] = Metabolic stability dog hepatocyte assessed as half life at 1 uM measured up to 120 mins by LC-MS/MS analysis; type: ADME, cell-based, Canis lupus familiaris; settings: hepatocytes
[9] = molecular target: T1, Protein cereblon/Interleukin-1 receptor-associated kinase 4 (Mus musculus, UniProt Q8C7D2+Q8R4K2); test: PROTAC activity at CRBN/IRAK4 in mouse PBMC cells assessed as induction of IRAK4 degradation incubated for 24 hrs by HiBiT lytic reagent based analysis; type: cell-based
T1 sequence (Q8C7D2 whole entry): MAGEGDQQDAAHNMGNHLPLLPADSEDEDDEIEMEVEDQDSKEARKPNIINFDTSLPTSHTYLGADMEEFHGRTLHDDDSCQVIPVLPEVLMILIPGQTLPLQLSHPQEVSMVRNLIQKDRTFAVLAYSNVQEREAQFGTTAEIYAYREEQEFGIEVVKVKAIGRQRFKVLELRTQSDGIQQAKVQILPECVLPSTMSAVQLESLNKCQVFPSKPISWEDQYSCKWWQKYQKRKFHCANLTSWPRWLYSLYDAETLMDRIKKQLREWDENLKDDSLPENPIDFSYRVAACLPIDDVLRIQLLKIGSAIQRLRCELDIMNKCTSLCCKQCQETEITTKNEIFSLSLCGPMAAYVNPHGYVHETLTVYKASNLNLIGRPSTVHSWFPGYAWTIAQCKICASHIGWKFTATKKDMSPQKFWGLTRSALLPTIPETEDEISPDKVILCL
T1 sequence (Q8R4K2 whole entry): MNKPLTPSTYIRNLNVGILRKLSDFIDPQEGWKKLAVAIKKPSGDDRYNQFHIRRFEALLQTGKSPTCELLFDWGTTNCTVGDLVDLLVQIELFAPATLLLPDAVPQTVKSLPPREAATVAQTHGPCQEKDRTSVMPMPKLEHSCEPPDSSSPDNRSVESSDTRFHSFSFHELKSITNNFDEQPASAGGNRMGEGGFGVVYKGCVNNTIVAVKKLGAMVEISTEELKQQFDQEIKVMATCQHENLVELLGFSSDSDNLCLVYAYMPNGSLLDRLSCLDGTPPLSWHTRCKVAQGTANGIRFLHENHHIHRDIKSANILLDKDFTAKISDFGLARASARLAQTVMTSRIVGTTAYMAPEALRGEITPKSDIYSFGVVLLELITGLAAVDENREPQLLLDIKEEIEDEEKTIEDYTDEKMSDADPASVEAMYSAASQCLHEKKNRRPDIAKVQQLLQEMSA

Mus musculus [10] = test: Anti-psoriasis effect in IMQ-induced C57BL/6 mouse assessed as reduction in ear thickness at 30 mg/kg administered topically twice daily for 6 days and measured after 24 hrs; type: functional, organism-based; settings: time 7.0 day
CYP2D6 = CYP2D6 (Homo sapiens, UniProt P10635); test: Inhibition of CYP2D6 in human liver microsome using dextromethorphan as substrate at 10 uM preincubated for 5 mins followed by NADPH addition and measured after 10 mins by LC-MS/MS analysis relative to control; type: ADME; settings: human liver microsomes, probe dextromethorphan, time 15 min
[11] = Kinetic solubility of compound in FeSSIF at pH 5 incubated for 2 hr by LC-MS analysis; type: physicochemical; settings: read-out: Kinetic_solubility
[12] = Half life in cynomolgus monkey at 20 mg/kg, po measured up to 24 hrs by LC-MS/MS analysis; type: ADME, organism-based, Macaca fascicularis; settings: in vivo
[13] = Plasma protein binding in mouse assessed as unbound fraction incubated for 2 hrs by rapid equilibrium dialysis; type: ADME, cell-free
[14] = Cmax in male C57BL/6 mouse at 10 mg/kg, po measured up to 24 hrs by LC-MS/MS analysis; type: ADME, organism-based; settings: in vivo
[15] = Half life in Beagle dog at 2 mg/kg, iv measured up to 24 hrs by LC-MS/MS analysis; type: ADME, organism-based, Canis lupus familiaris; settings: in vivo
Mus musculus [16] = test: Anti-arthritic activity against collagen-induced arthritis DBA/1 mouse model assessed as improvement in delta paw volume at 30 mg/kg, po administered for 14 days […]; type: functional, organism-based; settings: time 14.0 day
[17] = Oral bioavailability in Beagle dog at 10 mg/kg measured up to 24 hrs by LC-MS/MS analysis; type: ADME, organism-based, Canis lupus familiaris; settings: in vivo
[18] = Tmax in Sprague-Dawley rat at 10 mg/kg, po measured up to 24 hrs by LC-MS/MS analysis; type: ADME, organism-based; settings: in vivo
[19] = Oral bioavailability in Sprague-Dawley rat at 10 mg/kg measured up to 24 hrs by LC-MS/MS analysis; type: ADME, organism-based; settings: in vivo
[20] = Kinetic solubility of compound in PBS buffer at pH 7.4 incubated for 2 hr by LC-MS analysis; type: physicochemical; settings: read-out: Kinetic_solubility
[21] = molecular target: Protein cereblon/Zinc finger protein Aiolos (Homo sapiens) (UniProt Q96SW2+Q9UKT9); test: PROTAC activity at CRBN/IKZF3 in human PBMC cells assessed as induction of SALL4 degradation at 1 uM by Western blot analysis; type: cell-based
[22] = Oral bioavailability in cynomolgus monkey at 20 mg/kg measured up to 24 hrs by LC-MS/MS analysis; type: ADME, organism-based, Macaca fascicularis; settings: in vivo
[23] = Half life in male C57BL/6 mouse at 10 mg/kg, po measured up to 24 hrs by LC-MS/MS analysis; type: ADME, organism-based; settings: in vivo
[24] = Metabolic stability in dog liver microsome assessed as half life at 1 uM measured up to 60 mins in presence of NADPH by LC-MS/MS analysis; type: ADME, Canis lupus familiaris; settings: liver microsomes
Mus musculus [25] = test: Anti-psoriasis effect in IMQ-induced C57BL/6 mouse assessed as reduction in spleen weight at 100 mg/kg administered topically twice daily for 6 days and measured after 24 hrs; type: functional, organism-based; settings: time 7.0 day
[26] = molecular target: Protein cereblon/Interleukin-1 receptor-associated kinase 4 (Macaca fascicularis) (UniProt A0A2K5UTB3+A0A2K5V3Y9); test: PROTAC activity at CRBN/IRAK4 in cynomolgus monkey PBMC assessed as reduction in IRAK4 level measured at 48 hrs by immunoblotting analysis; type: cell-based; parameters: scale not given: the % may be the effect or the level left
Chain of Protein cereblon/Interleukin-1 receptor-associated kinase 4 (Macaca fascicularis) (A0A2K5UTB3 1-488): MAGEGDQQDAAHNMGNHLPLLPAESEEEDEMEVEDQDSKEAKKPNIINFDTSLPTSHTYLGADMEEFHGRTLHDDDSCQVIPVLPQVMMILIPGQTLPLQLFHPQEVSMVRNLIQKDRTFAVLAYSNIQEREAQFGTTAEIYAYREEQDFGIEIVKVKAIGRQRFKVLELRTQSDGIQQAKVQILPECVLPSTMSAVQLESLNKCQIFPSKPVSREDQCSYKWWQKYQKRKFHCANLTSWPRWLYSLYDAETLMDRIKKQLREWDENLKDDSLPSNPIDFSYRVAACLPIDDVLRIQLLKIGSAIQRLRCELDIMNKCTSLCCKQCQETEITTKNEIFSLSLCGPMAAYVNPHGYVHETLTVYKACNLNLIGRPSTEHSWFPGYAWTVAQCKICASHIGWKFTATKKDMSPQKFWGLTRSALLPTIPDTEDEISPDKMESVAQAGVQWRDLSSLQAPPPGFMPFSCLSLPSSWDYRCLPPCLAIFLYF
Chain of Protein cereblon/Interleukin-1 receptor-associated kinase 4 (Macaca fascicularis) (A0A2K5V3Y9 1-460 partner): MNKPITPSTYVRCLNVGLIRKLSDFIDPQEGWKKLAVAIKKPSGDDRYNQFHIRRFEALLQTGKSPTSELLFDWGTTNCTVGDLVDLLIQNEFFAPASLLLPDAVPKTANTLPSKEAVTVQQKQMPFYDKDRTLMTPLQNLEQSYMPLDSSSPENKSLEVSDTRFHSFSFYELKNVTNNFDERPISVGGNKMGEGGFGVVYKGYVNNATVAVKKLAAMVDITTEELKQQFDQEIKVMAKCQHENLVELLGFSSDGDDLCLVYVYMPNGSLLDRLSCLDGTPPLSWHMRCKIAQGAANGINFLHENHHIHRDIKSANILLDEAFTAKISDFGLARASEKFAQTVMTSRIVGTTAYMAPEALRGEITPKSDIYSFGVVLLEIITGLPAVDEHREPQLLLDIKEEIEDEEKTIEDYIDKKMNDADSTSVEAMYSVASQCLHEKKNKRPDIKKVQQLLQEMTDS

Chain of Protein cereblon/Zinc finger protein Aiolos (Homo sapiens) (Q96SW2 whole entry, looked up): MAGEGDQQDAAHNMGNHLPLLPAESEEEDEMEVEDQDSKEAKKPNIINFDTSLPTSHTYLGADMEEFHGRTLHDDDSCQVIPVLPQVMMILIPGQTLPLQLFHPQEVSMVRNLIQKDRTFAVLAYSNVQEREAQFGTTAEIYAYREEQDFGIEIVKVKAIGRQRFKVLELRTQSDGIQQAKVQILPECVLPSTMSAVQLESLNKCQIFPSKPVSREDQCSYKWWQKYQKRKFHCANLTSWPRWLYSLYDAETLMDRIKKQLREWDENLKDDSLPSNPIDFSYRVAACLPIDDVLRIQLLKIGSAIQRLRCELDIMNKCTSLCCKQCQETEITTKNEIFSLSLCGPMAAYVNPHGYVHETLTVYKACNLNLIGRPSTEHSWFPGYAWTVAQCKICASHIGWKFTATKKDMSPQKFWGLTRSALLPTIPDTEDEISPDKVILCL
Chain of Protein cereblon/Zinc finger protein Aiolos (Homo sapiens) (Q9UKT9 whole entry, looked up): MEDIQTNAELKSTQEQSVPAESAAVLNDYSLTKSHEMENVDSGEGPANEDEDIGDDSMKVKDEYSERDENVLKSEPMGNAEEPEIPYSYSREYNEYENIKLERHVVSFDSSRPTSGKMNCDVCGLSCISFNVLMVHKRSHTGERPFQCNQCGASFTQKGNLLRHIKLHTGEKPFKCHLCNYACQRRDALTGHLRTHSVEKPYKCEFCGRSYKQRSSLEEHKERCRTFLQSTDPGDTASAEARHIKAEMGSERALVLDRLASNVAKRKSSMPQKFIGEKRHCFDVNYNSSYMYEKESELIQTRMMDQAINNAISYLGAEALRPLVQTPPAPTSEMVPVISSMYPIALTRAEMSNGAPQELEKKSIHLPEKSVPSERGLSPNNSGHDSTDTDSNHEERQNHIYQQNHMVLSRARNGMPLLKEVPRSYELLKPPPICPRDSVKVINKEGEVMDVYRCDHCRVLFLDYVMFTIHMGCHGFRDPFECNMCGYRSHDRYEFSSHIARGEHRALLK
Chain of Protein cereblon/Interleukin-1 receptor-associated kinase 4 (Homo sapiens, UniProt Q9NWZ3+Q96SW2) (Q96SW2 whole entry, looked up): as the sequence (Q96SW2 whole entry, looked up) above
Chain of Protein cereblon/Interleukin-1 receptor-associated kinase 4 (Homo sapiens, UniProt Q9NWZ3+Q96SW2) (Q9NWZ3 whole entry, looked up): as the sequence (A0A2K5V3Y9 1-460 partner) above, with V118I, Y128C, L138V, L148P, A208T, D459A counted along it
Chain of CYP2D6 (P10635 whole entry): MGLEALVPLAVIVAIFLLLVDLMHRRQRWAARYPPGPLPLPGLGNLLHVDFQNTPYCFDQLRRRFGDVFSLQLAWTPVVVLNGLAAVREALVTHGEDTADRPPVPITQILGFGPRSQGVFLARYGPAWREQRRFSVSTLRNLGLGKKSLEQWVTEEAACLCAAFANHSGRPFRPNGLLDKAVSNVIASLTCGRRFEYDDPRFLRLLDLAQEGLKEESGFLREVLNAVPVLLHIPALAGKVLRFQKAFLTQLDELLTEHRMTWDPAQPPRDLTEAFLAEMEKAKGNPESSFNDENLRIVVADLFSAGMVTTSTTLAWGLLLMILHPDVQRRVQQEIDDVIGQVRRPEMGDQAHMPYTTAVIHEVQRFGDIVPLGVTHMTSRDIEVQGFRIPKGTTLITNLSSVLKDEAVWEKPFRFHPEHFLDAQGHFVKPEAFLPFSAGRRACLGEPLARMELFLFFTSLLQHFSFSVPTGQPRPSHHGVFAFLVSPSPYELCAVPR

For `Cn1c(=O)n(C2CCC(=O)NC2=O)c2cccc(C#CCO[C@H]3CC[C@H](CN4CCC5(CC4)Cc4cc(NC(=O)c6coc7cccnc67)c(N6CCC(CO)CC6)cc4O5)CC3)c21` (some centres not stated), the clearance [1] was 3.13 mL/min/kg, the Fu [2] was under 0.08% and the half-life [3] was 3.43 h. It also gave an efflux ratio at 2 h [4] of 2.22, an Emax [5] of 94% and a Tmax [6] of 2.67 h. The Activity [7] was over 80%, the half-life at 1 µM [8] was over 6.18 h and the DC50 [9] was 3.57 nM. The Activity (Mus musculus [10]) was “Active”, the inhibition at 10 min, 10 µM (CYP2D6) was 13.8% and the solubility kinetic at 2 h [11] was 7.78 µg/mL (≈ 8.94 µM). The half-life [12] was 9.07 h, the Fu [13] was 0.09% and the Cmax [14] was 1070 ng/mL. For the same molecule, the t1/2 [15] was 8.1 h, the Activity (Mus musculus [16]) was “Active” and the bioavailability [17] was 39%. For the same molecule, the Tmax [18] was 6 h, the F [19] was 18% and the solubility kinetic at 2 h [20] was 0.97 µg/mL (≈ 1.11 µM). For the same molecule, the Activity [21] was “inactive”, the bioavailability [22] was 11% and the half-life [23] was 4.34 h. For the same molecule, the half-life at 1 µM [24] was over 3.07 h, the Activity (Mus musculus [25]) was “Active” and the Activity [26] was 83%.

— ChEMBL document CHEMBL6182949 (J Med Chem, 2025)
